Values quoted from earlier work in patent US20080138412A1, “Sustained release alfuzosin hydrochl formulation and method for their production” (priority 2006, published 2008).
Counter-ions that a name gives are not always drawn.

half-life: about 9 hours
SMILES: COc1cc2nc(N(C)CCCNC(=O)C3CCCO3)nc(N)c2cc1OC (stereo not shown) [Alfuzosin hydrochloride]
